Reference: patent US11180809B2, “Biological markers for identifying patients for treatment with abiraterone acetate” (JANSSEN PHARMACEUTICA NV, priority 2014, dated 2021)

Columns and labels:
[1] = test system: metastatic castration-resistant prostate cancer (mCRPC); experiment: COU-AA-302: multivariate biomarker panel classifier (low/high risk) versus radiographic progression free survival, independent test set; type: in vivo, human; details: test set (AA group), multivariate panel cutpoint 0.9977
Description: (§1) COU-AA-302 is a Phase 3, multinational, randomized, double-blind, placebo-controlled study comparing the efficacy and safety of AA and prednisone (AA+P) to placebo and prednisone (Placebo+P) in medically or surgically castrated asymptomatic or mildly symptomatic men with mCRPC who have not received cytotoxic chemotherapy. Patients were assigned in a 1:1 ratio to receive either AA+P or Placebo+P and were stratified based on ECOG performance status of 0 or 1, as discussed in Clinical Study Protocol: A Phase 3 Randomized, Double-blind, Placebo-controlled Study of Abiraterone Acetate (CB7630) Plus Prednisone in Asymptomatic or Mildly Symptomatic Subjects with Metastatic Castration Resistant Prostate Cancer. Protocol COU-AA-302; EudraCT No. 2008-008004-41; 9 Jul. 2012.
(§2) All subjects in Study COU-AA-302, regardless of treatment group, received concurrent prednisone. See Clinical Study Report: CSR COU-AA-302 2012. A Phase 3, Randomized, Double-Blind, Placebo-Controlled Study of Abiraterone Acetate Plus Prednisone in Asymptomatic or Mildly Symptomatic Subjects With Metastatic Castration-Resistant Prostate Cancer. Issue Date: 26 Oct. 2012. Subjects who received AA+P are referred to herein as the “AA group” and in tables as “AA.” Subjects who received Placebo+P are referred to herein as the “Placebo group” and in tables as “Placebo.” Additional study related details can be obtained from the COU-AA-302 clinical study protocol or clinical study report.
A multivariate biomarker panel was identified using penalized regression to define a classifier that predicts radiographic progression free survival. The model was defined using an elastic net approach for feature selection and model specification. Data was separated into training and testing sets using a 70%-30% split. Within the training data, 10-fold cross-validation was used to define model parameters. Elastic net models have two parameters: alpha and lambda. Alpha is the elastic net penalty and determines the specific mixture of penalties that will be applied to limit complexity of the model. Lambda is the regularization penalty which determines the magnitude of the parameter used to limit complexity. After optimizing alpha and lambda using cross-validation, the values were used to define the cox regression model on the training data. The model is used to predict the relative risk of progression free-survival for all subjects in the training set. Then, time-dependent ROC analysis was used to determine the predictive power of the model and dichotomize the relative risk into two groups associated with low and high risk at the timepoint at which 90% of subjects with radiographic progression had observed recurrence of disease (t=20.48 months). This model, consisting of regression coefficients, timepoint and cutoff to discriminate between low and high risk, was applied to predict the relative risk of subjects in the independent test data and evaluate the predictive power and association with time to event of the classifier. This evaluation is repeated on the placebo data to confirm that the classifier is predictive of response to Abiraterone and not prognostic of outcome independent of treatment. Features used in the model building process included all single gene markers detected in greater than 50% of samples to exclude low expressing genes. The model was optimized to alpha=0.5 and lambda=0.209. Using these parameters, the optimized survival models were defined as described in Table 6.
Table 7 lists the predictive metrics which describe the performance of these models on the independent test and placebo group data.
Table 8 lists the statistics describing the association between classifier predictions and time to radiographic progression free survival.

[2] = test system: metastatic castration-resistant prostate cancer (mCRPC); experiment: COU-AA-302 Phase 3 study: Cox regression association of tumor mRNA biomarker expression with rPFS/OS within the AA group; type: in vivo, human
Description: as §1, §2
Formalin fixed paraffin embedded (FFPE) tumor samples from 258 subjects who optionally consented for RNA analysis were collected and shipped to the central laboratory (Covance, Ind.) for RNA analysis. FFPE samples from 152 subjects had sufficient RNA for TaqMan® Low Density Array (TLDA) analysis. Samples from the other 106 subjects were excluded either due to lack of tumor or low RNA yield. Of the 152 samples evaluated by TLDA, samples from 42 subjects were excluded from data analysis due to technical failures (no detectable gene expression or batch effects induced by microdissection of samples with low tumor content or low RNA input mass [<250 ng of total RNA]). The remaining evaluable samples from 110 subjects (Biomarker population) who were part of the ITT population (10%) and who had drug exposure with clinical data for at least one of the efficacy endpoints (rPFS, OS) were included in the analysis. Samples from these subjects were included in the mRNA analysis using the TaqMan® array microfluidic cards.
Raw CT values were filtered to remove values greater than 30. Quadruple replicate CT values were summarized using the geometric mean. Expression values were calculated using the comparative CT method as described in Schmittgen T D, Livak K J. Analyzing real-time PCR data by the comparative Ct method. Nature Protocols. 2008; 3:1101-1108. Briefly, a normalization factor was calculated for each sample using the geometric mean of housekeeping genes (ACTB and GAPDH). Relative expression values of all other transcripts were quantified as the difference between CT and the normalization factor. Transcript expression was calculated by the negation of the relative expression values to account for the inverse relationship between expression and CT. This is equivalent to the log 2 transform of 2^(-DeltaCT).
All statistical tests were interpreted at 5% significance levels (two-sided). For determination of specificity of biomarker association with clinical endpoints in AA group, a P<0.05 in the AA group and a P≥0.2 in the placebo group is required. Demographics and baseline characteristics were compared between the biomarker population and the ITT population using ANOVA (continuous variables) or Chi-Square (categorical variables) tests. […]

[3] = AA group (AA+prednisone), Cox regression with baseline ECOG, continuous log2 expression, (95% CI)
[4] = AA group, Cox regression with baseline ECOG, (95% CI)
[5] = AA group, multivariate Cox regression model

CC(=O)O[C@H]1CC[C@@]2(C)C(=CC[C@@H]3[C@@H]2CC[C@]2(C)C(c4cccnc4)=CC[C@@H]32)C1 [AA, abiraterone acetate] was tested, and the “HR, High versus Low risk, time to radiographic progression free survival” value ([1]; 95CI in next cell) was 6.25, the “Median time to radiographic progression free survival, High risk” value ([1]; 95CI in next cell) was 8.2 and the “Event/Total (Perc), rPFS, High risk” value ([1]; percentage of events) was “(100.0)”. For the same compound, the “Event/Total (Perc), rPFS, Low risk” value ([1]; percentage of events) was “(40.0)”, the “Event/Total, rPFS, High risk” value ([1]; timepoint 20.4813) was 4/4 and the “Event/Total, rPFS, Low risk” value ([1]; timepoint 20.4813) was 6/15. For the same compound, the “HR, association of ANLN expression with rPFS (IND)” value [2, 3] was 0.84 (0.72, 0.96), the “HR, association of ANLN expression with rPFS (INV)” value [2, 3] was 0.80 (0.69, 0.93) and the “reduction of the hazard of rPFS event per unit increase in relative expression of ANLN” value ([2]; AA group, 1-0.84, unit = 2-fold difference relative to reference gene) was 16%. For the same compound, the “HR, association of CYP17A1 and cofactors group composite score with OS” value ([2]; AA group, Cox regression) was 0.20, the “HR, association of androgen controlled group composite score with OS” value ([2]; AA group, Cox regression) was 0.31 and the “HR, association of proliferation pathway module with rPFS (INV)” value ([2]; AA group, Cox regression) was 0.63. The “HR, association of CYP17A1 and cofactors group composite score with rPFS (INV)” value [2, 4] was 0.71 (0.37, 1.36), the “HR, association of HSD17B10 expression with rPFS (IND)” value [2, 4] was 0.78 (0.62, 0.98) and the “HR, association of HSD17B10 expression with rPFS (INV)” value [2, 4] was 0.76 (0.62, 0.94). The “HR, association of NUSAP1 expression with rPFS (IND)” value [2, 4] was 0.82 (0.67, 1.00), the “HR, association of NUSAP1 expression with rPFS (INV)” value [2, 4] was 0.78 (0.64, 0.95) and the “HR, association of SRD5A1 expression with rPFS (IND)” value [2, 4] was 0.80 (0.65, 0.98). For the same compound, the “HR, association of SRD5A1 expression with rPFS (INV)” value [2, 4] was 0.83 (0.68, 1.00), the “HR, association of UBE2C expression with rPFS (IND)” value [2, 4] was 0.85 (0.74, 0.98) and the “HR, association of UBE2C expression with rPFS (INV)” value [2, 4] was 0.81 (0.71, 0.93). For the same compound, the “HR, association of ANLN expression with rPFS (IND), corrected for RNA extraction methodology” value [2, 5] was 0.86, the “HR, association of HSD17B10 expression with rPFS (IND), corrected for RNA extraction methodology” value [2, 5] was 0.78 and the “HR, association of NUSAP1 expression with rPFS (IND), corrected for RNA extraction methodology” value [2, 5] was 0.78. The “HR, association of SRD5A1 expression with rPFS (IND), corrected for RNA extraction methodology” value [2, 5] was 0.79 and the “HR, association of UBE2C expression with rPFS (IND), corrected for RNA extraction methodology” value ([2]; AA group, multivariate Cox regression model, trend of association) was 0.88.
